Laboratory results reported in US20230250098A1 (priority 2021, published 2023).
pIC50, pKi: −log10 of the molar value. Entries after “also recorded” stand apart in the source; their conditions may differ. Where a name gives a salt, the structure may show the parent alone.

Legend:
[1] = target: κOP (Homo sapiens, UniProt P41145); type: binding; design: membranes isolated; settings: for pKi: read-out: Binding Ki
[2] = target: T1, HA-mouse μOP (Mus musculus, UniProt P42866); assay: GloSensor cAMP inhibition assay in transfected HEK cells; type: cell-based; settings: for cAMP α: efficacy normalized to positive control DAMGO; for pIC50 / cAMP pIC50: inhibition of forskolin-induced cAMP
T1 construct: HA (N); expressed in transfected cells; host or cells: HEK cells, transient transfection together with pGloSensor22F

[3] = target: μOP (Homo sapiens, UniProt P35372); type: binding; design: membranes isolated; settings: [3H]DAMGO, CHO membranes; for pKi: read-out: Binding Ki
[4] = target: T2, FLAG-mouse δOP (Mus musculus, UniProt P32300); assay: GloSensor cAMP inhibition assay in transfected HEK cells; type: cell-based; settings: for cAMP α: efficacy normalized to positive control Leu-Enk; for pIC50 / cAMP pIC50: inhibition of forskolin-induced cAMP
T2 construct: FLAG (N); expressed in transfected cells; host or cells: HEK cells (HEK-293), transient transfection together with pGloSensor22F

[5] = tested on: δOP KO mice; assay: Two-bottle choice alcohol paradigm in δOP KO mice; type: in vivo, mouse; settings: 30 mg·kg^−1; male δOP KO mice
[6] = tested on: C57Bl/6 wild-type mice; assay: Two-bottle choice alcohol paradigm (drinking in the dark, 10% ethanol vs water); type: in vivo, mouse
[7] = target: T3, FLAG-mouse κOP (Mus musculus, UniProt P33534); type: cell-based
T3 construct: FLAG (N); expressed in transfected cells; host or cells: HEK cells, transient transfection together with pGloSensor22F

[8] = target: T4, δOP (Homo sapiens, UniProt P41143); type: binding; design: membranes isolated; settings: for Binding pKi / pKi: [3H]DPDPE, CHO membranes; for pKi: read-out: Binding Ki
[9] = tested on: C57Bl/6 wild-type mice; settings: cited from earlier work; for alcohol consumption, in words (previous reports): dose not stated
[10] = tested on: WT mice; assay: Locomotor evaluation; settings: dose of naloxone considered to be μOP-selective
[11] = target: T4, δOP; type: cell-based; settings: normalized to positive control Leu-Enk

T4 sequence (P41143 whole entry): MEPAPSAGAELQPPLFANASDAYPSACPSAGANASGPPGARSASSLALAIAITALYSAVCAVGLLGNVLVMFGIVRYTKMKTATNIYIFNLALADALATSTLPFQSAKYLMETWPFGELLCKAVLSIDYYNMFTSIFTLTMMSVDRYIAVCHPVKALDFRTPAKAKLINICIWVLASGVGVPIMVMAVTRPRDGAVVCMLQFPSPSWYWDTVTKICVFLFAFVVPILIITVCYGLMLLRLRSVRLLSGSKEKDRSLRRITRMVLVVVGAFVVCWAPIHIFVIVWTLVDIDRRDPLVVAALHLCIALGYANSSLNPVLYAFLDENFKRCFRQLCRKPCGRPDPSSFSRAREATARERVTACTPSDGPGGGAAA
Sequence of κOP (P41145 whole entry): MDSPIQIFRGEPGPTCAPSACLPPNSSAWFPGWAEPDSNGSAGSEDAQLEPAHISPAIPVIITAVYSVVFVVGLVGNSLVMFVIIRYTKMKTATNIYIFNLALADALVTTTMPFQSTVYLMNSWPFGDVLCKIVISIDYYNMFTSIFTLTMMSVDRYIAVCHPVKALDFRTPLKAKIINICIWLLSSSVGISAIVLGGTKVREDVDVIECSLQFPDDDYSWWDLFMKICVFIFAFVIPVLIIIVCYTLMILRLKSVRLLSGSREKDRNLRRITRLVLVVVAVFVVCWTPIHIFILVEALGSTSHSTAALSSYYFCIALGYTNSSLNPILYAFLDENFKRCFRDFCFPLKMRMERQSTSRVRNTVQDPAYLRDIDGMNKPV
T1 sequence (P42866 whole entry): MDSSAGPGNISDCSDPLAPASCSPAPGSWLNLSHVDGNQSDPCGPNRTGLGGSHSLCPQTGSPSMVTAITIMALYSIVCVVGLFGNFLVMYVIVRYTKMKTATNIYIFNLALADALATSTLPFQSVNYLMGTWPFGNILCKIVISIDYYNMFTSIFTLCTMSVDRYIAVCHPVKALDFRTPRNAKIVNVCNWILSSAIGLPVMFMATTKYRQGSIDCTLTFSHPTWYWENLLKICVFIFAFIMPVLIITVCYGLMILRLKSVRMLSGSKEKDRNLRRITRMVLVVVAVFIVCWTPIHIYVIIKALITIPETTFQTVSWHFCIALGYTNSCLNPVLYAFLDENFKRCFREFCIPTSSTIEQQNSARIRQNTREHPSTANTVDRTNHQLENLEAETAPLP
T3 sequence (P33534 whole entry): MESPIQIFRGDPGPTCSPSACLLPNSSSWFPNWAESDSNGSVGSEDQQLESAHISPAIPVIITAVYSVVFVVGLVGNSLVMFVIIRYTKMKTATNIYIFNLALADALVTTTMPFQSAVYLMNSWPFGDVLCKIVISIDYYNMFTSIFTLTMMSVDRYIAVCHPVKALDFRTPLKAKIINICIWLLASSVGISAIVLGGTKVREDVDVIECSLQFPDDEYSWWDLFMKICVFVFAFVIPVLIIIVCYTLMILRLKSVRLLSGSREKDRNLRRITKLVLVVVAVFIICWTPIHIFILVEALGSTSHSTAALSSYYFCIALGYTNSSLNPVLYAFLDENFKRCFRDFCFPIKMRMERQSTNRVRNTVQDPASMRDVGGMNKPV
T2 sequence (P32300 whole entry): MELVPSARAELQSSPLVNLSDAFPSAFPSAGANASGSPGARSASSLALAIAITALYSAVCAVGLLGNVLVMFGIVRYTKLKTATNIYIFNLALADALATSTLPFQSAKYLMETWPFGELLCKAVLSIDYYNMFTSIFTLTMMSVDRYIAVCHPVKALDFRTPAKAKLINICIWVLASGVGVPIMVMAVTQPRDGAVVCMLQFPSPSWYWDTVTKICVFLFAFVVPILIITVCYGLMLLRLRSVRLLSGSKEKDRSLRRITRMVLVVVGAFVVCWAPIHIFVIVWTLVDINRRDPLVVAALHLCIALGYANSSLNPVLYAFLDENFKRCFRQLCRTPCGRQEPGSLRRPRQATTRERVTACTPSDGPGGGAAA
Sequence of μOP (P35372 whole entry): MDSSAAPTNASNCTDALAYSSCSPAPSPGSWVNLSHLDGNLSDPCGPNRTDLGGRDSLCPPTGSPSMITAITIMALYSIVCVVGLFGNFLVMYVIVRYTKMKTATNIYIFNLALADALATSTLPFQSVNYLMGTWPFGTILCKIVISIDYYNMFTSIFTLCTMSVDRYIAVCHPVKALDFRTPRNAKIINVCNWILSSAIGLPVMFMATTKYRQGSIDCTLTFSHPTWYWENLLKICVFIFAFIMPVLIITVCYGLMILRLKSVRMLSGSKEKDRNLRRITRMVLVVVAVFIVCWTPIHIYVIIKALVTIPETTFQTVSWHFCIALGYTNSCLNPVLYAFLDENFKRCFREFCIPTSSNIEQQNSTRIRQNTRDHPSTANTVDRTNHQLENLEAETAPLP

Compound | Binding pKi [1] | pKi [1] | cAMP α [2] | pIC50 [2] | cAMP pIC50 [2] | Binding pKi [3] | pKi [3] | cAMP α [4] | Binding pKi [8] | pKi [8] | other results
C=C[C@H]1CN2CC[C@@]3(O)C(=Nc4cccc(OC)c43)[C@@H]2C[C@@H]1/C(=C\OC)C(=O)OC [70H PAYN, 7-Hydroxypaynantheine] | 5.1 ± 0.1 (3) | 5.13 | 80 ± 40 | 4.66 | 4.7±0.5 | 5.2 ± 0.1 (3) | 5.21 | 70 ± 20 | 4.9±0.2 | 4.90 | cAMP inhibition at the μOP, in words [2]: lowest potency at the μOP; also recorded: reduced μOP potency; pIC50 [4]: 5.24; cAMP pIC50 [4]: 5.2 ± 0.3 (5); ethanol consumption in δOP KO mice, in words [5]: did not significantly decrease ethanol consumption; also recorded: alcohol consumption was not significantly altered; ethanol consumption, in words ([6]; 10 mg·kg^−1 s.c., WT mice, listed as 7-hydroxypaynanthiene): not 10 mg·kg^−1; ethanol consumption, in words ([6]; 30 mg·kg^−1 (7-hydroxypaynantheine s.c., speciociliatine i.p.), WT male mice): significantly reduce alcohol intake; also recorded: significantly decreased ethanol consumption; ethanol consumption, in words ([6]; 30 mg·kg^−1 (7-hydroxypaynantheine s.c., speciociliatine i.p.), WT male mice, listed as 7-hydroxypaynanthiene): efficacious activity; also recorded: decreased the percent ethanol consumption; average decrease of ethanol consumption ([6]; 30 mg·kg^−1, WT mice): 1.1 ± 0.3 g/kg; percent reduction of ethanol consumption ([6]; 30 mg·kg^−1, WT mice): 40±11%; cAMP inhibition at the κOP, in words [7]: not detected at the tested dose range; δOP binding, in words [8]: a magnitude weaker in binding the δOP than 7-hydroxyspeciogynine
COc1ccsc1CNCC[C@@]1(c2ccccn2)CCOC2(CCCC2)C1 [Oliceridine] |  |  |  |  |  |  |  |  |  |  | alcohol consumption, in words (previous reports) [9]: not decrease alcohol consumption
C=CC1CN2CCC3(Nc4cccc(OC)c4C3=O)C2CC1C(=COC)C(=O)OC (stereo not drawn) [PAYN PI, Paynantheine Pseudoindoxyl] | 5.9 ± 0.1 (4) | 5.88 | 60 ± 6 | 5.32 | 5.3 ± 0.2 (4) | 6.2 ± 0.1 (3) | 6.17 |  | 6.0 ± 0.1 (3) | 6.04 | cAMP inhibition at the μOP, in words [2]: lowest potency at the μOP
CC[C@H]1CN2CC[C@]3(Nc4cccc(OC)c4C3=O)[C@@H]2C[C@@H]1/C(=C\OC)C(=O)OC [SPG PI, Speciogynine Pseudoindoxyl] | 6.1 ± 0.1 (3) | 6.12 | 58 ± 4 | 6.64 | 6.6 ± 0.2 (5) | 7.1 ± 0.1 (3) | 7.11 | 80 ± 20 | 6.0 ± 0.1 (3) | 6.03 | pIC50 [4]: 5.07; cAMP pIC50 [4]: 5.1 ± 0.3 (4); cAMP pIC50 [7]: 4.7 ± 0.5 (4); cAMP α [7]: 80 ± 30; pIC50 ([7]; read-out: cAMP IC50): 4.69
CC[C@H]1CN2CCc3c([nH]c4cccc(OC)c34)[C@@H]2C[C@@H]1/C(=C\OC)C(=O)OC [SPG, speciogynine, reference compound] | 5.4 ± 0.1 (5) | 5.52 |  |  |  |  |  |  | 5.1 ± 0.1 (6) | 5.27 | alcohol intake, in words ([6]; systemic (i.p.) injection, modified 2-bottle choice, male C57BL/6 mice, FIG. 1): reduce alcohol intake
CN1CC[C@]2(c3cccc(O)c3)Cc3nc4ccccc4cc3C[C@H]2C1 [TAN-67] |  |  |  |  |  |  |  |  |  |  | alcohol consumption, in words (previous reports) [9]: efficaciously reduces alcohol use
C=CCN1CC[C@]23c4c5ccc(O)c4O[C@H]2C(=O)CC[C@@]3(O)[C@H]1C5 [naloxone, naloxone hydrochloride] |  |  |  |  |  |  |  |  |  |  | block of 7-hydroxymitragynine-induced hyperlocomotion [10]: completely blocked
Oc1ccc2c3c1O[C@H]1c4[nH]c5ccccc5c4C[C@@]4(O)[C@@H](C2)N(CC2CC2)CC[C@]314 [naltrindole] |  |  |  |  |  |  |  |  |  |  | alcohol intake, in words (previous reports) ([9]; 10 mg·kg^−1): not decrease alcohol intake
Leu-enkephalin [reference compound] |  |  |  |  |  |  |  | 100 |  |  | β-arrestin 2 α [11]: 100
